“Also recorded” adds a separate entry of the source.
Assays:
Male Sprague Dawley rats = assay: Test A. Loss of Righting Reflex Assay with dose escalation to maximum tolerated dose; type: in vivo; settings: rat; for Safety compared with propofol: doses escalated; for Potency compared with propofol: equal dose (7 mg/kg), 7 mg/kg
Source text: The ability of a compound of the invention to produce an anesthetic effect (i.e. efficacy) can be determined using standard pharmacological models that are well known to the art. […] The potency of such a compound was compared to the potency of propofol using this assay.
The safety of a compound of the invention can be determined using standard pharmacological models that are well known to the art. […] The safety of such a compound was compared to that of propofol using this assay.
Male Sprague Dawley rats were restrained in a holder, and test compound or propofol was injected in the tail vein (based on milligrams (mg) compound per kilogram (kg) body weight). Following administration, the rats were placed in a dorsal recumbent position on a heating blanket. The time to onset for the loss of the Righting Reflex (RR-ability of rat to right itself) was recorded, as was the duration of the loss of the RR. Doses were escalated until the maximum tolerated doses were achieved.

pig = assay: Test B. Anesthetized Pig Model (hemodynamic profile); type: in vivo; settings: 20 minute intravenous infusion, data in FIGS. 1 and 2
Protocol: The hemodynamic profile of a compound of the invention can be determined using standard pharmacological models that are well known to the art. The hemodynamic and anesthetic profiles of a compound of the invention can be evaluated simultaneously using an anesthetized pig model (as described in Test B below).
The anesthetic induction was performed using a modification of a technique described by Ko et al (Ko et al., Lab Anim Sci 1993; 43: 476-80) for swine (Telazol, xylazine and ketamine given as an intramuscular injection). The minimal effective dose for induction and tracheal intubation was used. […]
A compound of the invention or propofol was administered intravenously by a 20 minute infusion after the stabilization period through the peripheral IV catheter. […] Blood samples (1 mL each) were collected at pre-dose and at 2, 4, 6, 8, 10, 12, 15, 20, 22, […], 25, 35, 50, 65 and 80 minutes after the start of the first infusion for pharmacokinetic purposes; EEG were recorded continuously as the primary pharmacodynamic endpoint. […]
The EEG signal was fed to a BIS analyzer (Aspect Medical) which provided continuous output of processed EEG data. The output consisted of a “BIS” number calculated by a proprietary algorithm that ranges between 100 (fully conscious) and 0 (isoelectric) and indicated brain activity.
Hemodynamic data were recorded and plotted to assess trends over the drug exposure period. […]

Structure (SMILES)	Safety compared with propofol (Male Sprague Dawley rats)	Potency compared with propofol (Male Sprague Dawley rats)	Outcome: deaths (Male Sprague Dawley rats; tail vein bolus dose 7 mg/kg)	Outcome: minutes of sleep post bolus dose (Male Sprague Dawley rats; tail vein bolus dose 7 mg/kg)	Outcome: deaths (Male Sprague Dawley rats; tail vein bolus dose 14 mg/kg)	Outcome: deaths (Male Sprague Dawley rats; tail vein bolus dose 21 mg/kg)	Potency compared with propofol (Male Sprague Dawley rats; listed as 2-(1-Ethylpropyl)-6-isopropylphenol)	Hemodynamic properties compared with propofol (pig)
CC(C)c1cccc(C(C)C(C)C)c1O (racemic) [2-(3-methyl)secbutyl-6-isopropylphenol]	greater safety compared to propofol; also recorded: improved safety	at least equivalent, if not greater potency than propofol; also recorded: at least equivalent potency	0/6 deaths	7.5 minutes of sleep post	0/6 deaths	0/6 deaths	–	–
CC(C)c1cccc(C(C)C)c1O [Propofol, 2,6-diisopropylphenol]	–	–	0/10 deaths	7.1 minutes of sleep post	6/10 deaths	4/6 deaths	–	–
CCC(CC)c1cccc(C(C)C)c1O [2-(1-ethylpropyl)-6-isopropylphenol]	greater safety compared to propofol; also recorded: improved safety	at least equivalent potency	0/6 deaths	9.9 minutes of sleep post	0/6 deaths	0/6 deaths	at least equivalent, if not greater, potency than propofol	improved hemodynamic properties

From patent US20120283335A1, “Analogs of Propofol, Preparation Thereof and Use as Anesthetics” (priority 2008, published 2012)
